Where two headings read alike, the source gives them in different places.

The conditions of the series: mice, mean of 6. On the procedure: The time course of organ distribution was determined in groups of six Hal Cr female albino mice. They were injected with 0.10 ml (0.5 uCi) of the preparation. For comparison purposes, 0.2 uCi OIH was added to each injection. The mice were placed in metabolic cages for the collection of excreted urine. At indicated intervals after injection, the urethra was ligated and the mice killed with chloroform vapor.

Setting [1] is: 120 min post injection, 120 min.

Under “10 min post injection”, `O=C(O)C1C(C(=O)O)[N]2C(=O)C[S][99Tc-]23(=[O])[S]CC(=O)[N]13` (single isomer, unassigned) [Tc--99m--2,3--(MERCAPTOACETAMIDO) SUCCINATE Component A] [Tc-99m chelate of 2,3-bis(mercaptoacetamido)succinic acid] returned a Blood of 10.13, an Intestines of 2.16, a Kidneys of 3.41 and a Liver of 5.80. This compound returned a Stomach (10 min post injection) of 0.40. Also, the Urine (10 min post injection, 10 min) is 32.32. Under “120 min post injection”, this compound showed a Blood of 0.44, an Intestines of 0.30, a Kidneys of 7.44 and a Liver of 3.17. For the setting “120 min post injection”, the Stomach worked out at 0.03. Under setting [1], the Urine turned out to be 77.73.
Under “10 min post injection”, `O=C(O)C1C(C(=O)O)[N]2C(=O)C[S][99Tc-]23(=[O])[S]CC(=O)[N]13` (single isomer, unassigned) [Tc--99m--2,3--(MERCAPTOACETAMIDO) SUCCINATE Component B] [Tc-99m chelate of 2,3-bis(mercaptoacetamido)succinic acid] gave a Blood of 16.21, an Intestines of 2.88, a Kidneys of 3.43 and a Liver of 7.06. For the same compound, the Stomach (10 min post injection) was found to be 0.53. Under “10 min post injection, 10 min”, the Urine was 19.32. In addition, under “120 min post injection”, the Blood came to 0.87, the Intestines turned out to be 8.85, the Kidneys worked out at 0.65 and the Liver is on record as 2.33. Also, the Stomach (120 min post injection) stood at 0.49. Moreover, under setting [1], the Urine is on record as 66.92.

Values taken from patent US4444690A, “Technetium chelates” (priority 1982, dated 1984).
